The values below come from patent US12171813B2, “Methods of and compositions for reducing gene expression and/or activity” (Christiana Care Gene Editing Institute, Inc., priority 2021, dated 2024).

One data set deals with EGFR gene. The data set can be described thus: Screening of SureKill guide RNAs in the EGFR gene for ability to induce indels. The conditions noted are these: transfections of individual guide RNAs (spCas9 RNP); PDMR human lung adenocarcinoma cells with EGFR L858R; DECODR. Type of data set: cell-based. The procedure:
Human lung squamous cell carcinoma NCI-H1703 clone 44-25 cells were derived from NCI-H1703 cells (#CRL-5889) which were purchased from ATCC (Manassas, VA, USA). NCI-H1703 clone 44-25 cells contains R34G mutation (C 4 G) in NFE2L2 gene. H1703 clone 44-25 cells were cultured in ATCC formulation RPMI-1640 with 10% FBS. T75 flasks were used and cells were split 1:5 upon reaching 90% confluency. Human lung adenocarcinoma cells (Dist. Lot. No. LG0703-F948-PDC) were acquired from the National Institute of Health's National Cancer Institute's Patient-Derived Models Repository (PDMR). This PDMR cell line contains the L858R mutation (T 4 G) in the EGFR gene. The PDMR cells were maintained in Advanced DMEM/F12 media containing 10% FBS, 0.4 μg/mL hydrocortisone, 0.01 μg/mL EGF Recombinant Human Protein, 24 μg/mL adenine, and 2 mM L-Glutamine. T75s were used and cells were split 1:3 upon reaching 90% confluency. All cultures were maintained in cell culture incubators at 37° C. and 5% CO2.
Ribonucleoproteins (RNP) are complexed by incubating 250 pmol of purified synthetic gRNA (Synthego Corporation, Redwood City, CA) with 50 pmol of purified spCas9 (Synthego Corporation, Redwood City, CA) at room temperature in nuclease-free 1× TE buffer for 15 minutes.
Transfections were carried out using the Lonza Nuclefector 4d. Cultures in t75s at 90% confluence were split 1:2 24 hours prior to transfection. RNPs were complexed at 250:50 pmol for 30 minutes prior to transfection, during which time cells were harvested and counted. All reactions were 100 μL and contained 1 e6 cells. Lonza SF solution and Nucleofector program CM-130 were used in all transfections of the H1703 cell line. Lonza SE solution and Nucleofector program CA-137 were used in all transfections of the PDMR. After transfection, 500 μL of media that had been equilibrated to cell culture CO2 and temperature conditions was added to each 100 μL cuvettes. Cuvettes were then placed in the incubator. After 20 minutes, the entire content of each cuvette was seeded into 3 mL of media in a 6 well plate. After 72 hours, samples were dissociated using 200 μL Trypsin 0.25% for 5 minutes. 800 μL culture media was used to quench and split into 1.5 mL tubes each containing 500 μL of the sample. Tubes were spun at 300×g for 5 minutes. One of the tubes was placed in the −20° C. freezer and the other was resuspended in 500 μL of Trizol for RNA extraction and cDNA synthesis.
All sequencing was performed on the Applied Biosystems SeqStudio. The BigDye Terminator v3.1 Cycle Sequencing Kit was used to prepare samples for sequencing. Resulting sequences were analyzed with DECODR to determine indel rates (Bloh et al., CRISPR J. 4:120-31 (2021)).
Human EGFR is a frequently mutated gene that is associated with cancers. One of the most common mutations is L858R which results in the creation of a novel PAM site, making it a targetable sequence by CRISPR. Like the R34G mutation, the CRISPR designed to target the L858R mutation is not highly efficient on its own. By combining the L858R-targeting CRISPR with another CRISPR of high efficiency in a downstream intronic region, exon skipping can be induced, resulting in a higher efficiency of functional knockout than the L858R targeting CRISPR alone. To find a suitable gRNA to pair with the L858R targeting CRISPR, we selected the intron between exons 21 and 22 (FIG. 6). A series of gRNAs were created in this region and screened for their ability to induce indels, a measure of their activity using DECODR (Bloh et al., CRISPR J. 4:120-31 (2021)) (Table 3).
In Table 3, all sequences are listed from 5′ to 3′. Indel percent, a measure of CRISPR activity, is based on transfections of individual guide RNAs. All guide RNAs, with the exception of L858R, were designed in the intron between exons 21 and 22.

A further data set deals with EGFR. Put plainly: cDNA PCR analysis of exon skipping / full-size transcript in EGFR. Format: cell-based, Human. Conditions: intron-targeting gRNA paired with L858R targeting CRISPR, compared to L858R targeting CRISPR alone. Here is the method:
After CRISPR reactions, total RNA was prepared, and cDNA synthesized for PCR amplification of the target region from EGFR. PCR-amplified DNA was then analyzed by electrophoresis through a 1% agarose gel for 75 minutes at 80v. DNA was stained with SYBR Safe. Lanes 1 and 13: NEB 2 Log Ladder; Lane 2: Scrambled gRNA; Lane 3: EGFR 21-22 SureKill gRNA 11 alone; Lane 4: EGFR 21-22 SureKill gRNA 13 alone; Lane 5: EGFR 21-22 SureKill gRNA 16 alone; Lane 6: EGFR 21-22 SureKill gRNA 17 alone; Lane 7: EGFR 21-22 SureKill gRNA 19 alone; Lane 8: EGFR 21-22 SureKill gRNA 22 alone; Lane 9: EGFR 21-22 SureKill gRNA 23 alone; Lane 10: EGFR 21-22 SureKill gRNA 27 alone; Lane 11: EGFR 21-22 SureKill gRNA 28 alone; Lane 12: EGFR 21-22 SureKill gRNA 29 alone. On the left side of the image are markers indicating DNA size in bp.
After CRISPR reactions, total RNA was prepared, and cDNA synthesized for semi-quantitative PCR amplification of the target region from EGFR. PCR amplification was performed for 25 cycles. PCR-amplified DNA was then analyzed by electrophoresis through a 1% agarose gel for 75 minutes at 80v. DNA was stained with SYBR Safe. […]
Transfections were carried out using the Lonza Nuclefector 4d. […] RNPs were complexed at 250:50 pmol for 30 minutes prior to transfection, during which time cells were harvested and counted. […]

“EGFR 21-22 SureKill gRNA 28: EGFR intron 21-22 guide RNA GCAGCCTGGTCCCTGGTGTC, SEQ ID NO:51 (listed as DNA, chemistry not given here)”: the indel % in the data set with EGFR gene is recorded as 97.6%. In addition, the “reduction in the full-size transcript (cDNA, semi-quantitative PCR 25 cycles)” value with EGFR was “enhanced reduction in the full-size transcript”.
